Test results reported in EP1060190B1, “NEW SALT FORMS OF (2E)- 5-AMINO-5- METHYLHEX-2- ENOIC ACID N-METHYL-N-((1R)-1-(N- METHYL-N-((1R)-1-(METHYLCARBAMOYL)-2- PHENYLETHYL)CARBAMOYL)-2- (2-NAPHTYL)ETHYL)AMIDE” (NOVO NORDISK A/S, priority 1998, dated 1999).
Structures can show the parent of a compound that is named as a salt.

Experiment: Exposure of the anhydrous salt form to high humidity (solid form stability)
Type: physicochemical
Details: e.g. 10 weeks at 98% RH

CNC(=O)[C@@H](Cc1ccccc1)N(C)C(=O)[C@@H](Cc1ccc2ccccc2c1)N(C)C(=O)/C=C/CC(C)(C)N [compound I,hfum, compound I,hemi fumarate]
Exposure of the anhydrous form to high humidity: produced the hydrous form
